Reference: patent publication US8481539B2, “Alkynylaryl compounds and salts thereof, pharmaceutical compositions comprising same, methods of preparing same and uses of same” (Bayer Intellectual Property GmbH, priority 2007, dated 2013)

Molecular target: T1, human VEGFR2 (Homo sapiens, UniProt P35968)
T1 construct: GST-tagged recombinant kinase domain of the human VEGFR2; GST; host or cells: SF-9 cells
Assay: VEGFR2 HTRF Assay (assay 5)
Type: biochemical
Details: pIC50 class; 10 μM ATP; read-out: Enzymatic VEGFR2 activity (assay 5)
From the text: Assay 5: VEGFR2 HTRF Assay
VEGFR2 inhibitory activity of compounds of the present invention was quantified employing the VEGFR2 HTRF assay as described in the following paragraphs.
GST-tagged recombinant kinase domain of the human VEGFR2 expressed in SF-9 cells was used as kinase. As substrate for the kinase reaction the biotinylated peptide biotin-Ahx-DFGLARDMYDKEYYSVG (C-terminus in acid form) was used which can be purchased e.g. form the company Biosynthan GmbH (Berlin-Buch, Germany). VEGFR2 was incubated for 45 min at 22° C. in the presence of different concentrations of test compounds in 5 μl assay buffer [50 mM Hepes/NaOH pH 7.0, 25 mM MgCl2, 5 mM MnCl2, 1.0 mM dithiothreitol, 0.1 mM sodium ortho-vanadate, 10 μM adenosine-tri-phosphate (ATP), 0.5 μM substrate, 0.001% (v/v) Nonidet-P40 (Sigma), 1% (v/v) dimethylsulfoxide]. The concentration of VEGFR2 was adjusted depending of the activity of the enzyme lot and was chosen appropriate to have the assay in the linear range. The reaction was stopped by the addition of 5 μl of a solution of HTRF detection reagents (0.1 μM streptavidine-XLent and 2 nM PT66-Eu-Chelate, an europium-chelate labelled anti-phospho-tyrosine antibody from Perkin Elmer) in an aqueous EDTA-solution (125 mM EDTA, 0.2% (w/v) bovine serum albumin in 50 mM HEPES/NaOH pH 7.0).
The resulting mixture was incubated for 1 h at 22° C. to allow the binding of the biotinylated phosphorylated peptide to the streptavidine-XLent and the PT66-Eu-Chelate. Subsequently the amount of phosphorylated substrate was evaluated by measurement of the resonance energy transfer from the PT66-Eu-Chelate to the streptavidine-XLent. Therefore, the fluorescence emissions at 620 nm and 665 nm after excitation at 350 nm was measured in a HTRF reader, e.g. a Rubystar (BMG Labtechnologies, Offenburg, Germany) or a Viewlux (Perkin-Elmer). The ratio of the emissions at 665 nm and at […] was taken as the measure for the amount of phosphorylated substrate. The data were normalized (enzyme reaction without inhibitor=0% inhibition, all other assay components but no enzyme=100% inhibition) and IC50 values were calculated by a 4 parameter fit using an inhouse software.

T1 sequence (P35968 834-1162 limits assumed): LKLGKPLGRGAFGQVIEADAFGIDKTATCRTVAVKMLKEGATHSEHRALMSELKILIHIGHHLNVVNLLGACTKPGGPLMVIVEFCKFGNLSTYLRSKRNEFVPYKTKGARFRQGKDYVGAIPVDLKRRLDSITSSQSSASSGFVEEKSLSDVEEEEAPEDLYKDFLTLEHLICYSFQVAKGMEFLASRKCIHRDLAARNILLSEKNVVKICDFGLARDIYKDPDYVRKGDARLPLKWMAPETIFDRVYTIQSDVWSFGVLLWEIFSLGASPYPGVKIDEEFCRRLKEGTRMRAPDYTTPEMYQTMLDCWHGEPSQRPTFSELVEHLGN

Structure (SMILES) | IC50
Cn1ncc2c(C#Cc3cccc(NC(=O)c4cccc(C(F)(F)F)c4)c3)cncc21 [Example 1.5, N-[3-(1-Methyl-1H-pyrazolo[3,4-c]pyridin-4-ylethynyl)-phenyl]-3-trifluoromethyl-benzamide] | < 1 µM
Cc1ccc(NC(=O)c2cccc(C(F)(F)F)c2)cc1C#Cc1cncc2c1cnn2C [Example 1.6, N-[4-Methyl-3-(1-methyl-1H-pyrazolo[3,4-c]pyridin-4-ylethynyl)-phenyl]-3-trifluoromethyl-benzamide] | < 1 µM
Cn1ncc2c(C#Cc3cc(NC(=O)c4cccc(C(F)(F)F)c4)ccc3F)cncc21 [Example 1.9, N-[4-Fluoro-3-(1-methyl-1H-pyrazolo[3,4-c]pyridin-4-ylethynyl)-phenyl]-3-trifluoromethyl-benzamide] | < 1 µM

Next, values leading:

IC50 | Structure (SMILES)
< 1 µM | Cn1ncc2c(C#Cc3cccc(NC(=O)Nc4ccccc4)c3)cncc21 [Example 2.1, 1-[3-(1-Methyl-1H-pyrazolo[3,4-c]pyridin-4-ylethynyl)-phenyl]-3-phenyl-urea]
< 1 µM | Cc1ccc(NC(=O)Nc2cccc(C(F)(F)F)c2)cc1C#Cc1cncc2c1cnn2C [Example 2.4, 1-[4-Methyl-3-(1-methyl-1H-pyrazolo[3,4-c]pyridin-4-ylethynyl)-phenyl]-3-(3-trifluoromethyl-phenyl)-urea]
